These results are taken from patent publication US12492380B2, “Methods for the production of hepatocytes” (FUJIFILM Cellular Dynamics, Inc., priority 2019, dated 2025).

One data set concerns the target T1, ZAP-70 (Homo sapiens, UniProt P43403).
T1 sequence (P43403 1-619): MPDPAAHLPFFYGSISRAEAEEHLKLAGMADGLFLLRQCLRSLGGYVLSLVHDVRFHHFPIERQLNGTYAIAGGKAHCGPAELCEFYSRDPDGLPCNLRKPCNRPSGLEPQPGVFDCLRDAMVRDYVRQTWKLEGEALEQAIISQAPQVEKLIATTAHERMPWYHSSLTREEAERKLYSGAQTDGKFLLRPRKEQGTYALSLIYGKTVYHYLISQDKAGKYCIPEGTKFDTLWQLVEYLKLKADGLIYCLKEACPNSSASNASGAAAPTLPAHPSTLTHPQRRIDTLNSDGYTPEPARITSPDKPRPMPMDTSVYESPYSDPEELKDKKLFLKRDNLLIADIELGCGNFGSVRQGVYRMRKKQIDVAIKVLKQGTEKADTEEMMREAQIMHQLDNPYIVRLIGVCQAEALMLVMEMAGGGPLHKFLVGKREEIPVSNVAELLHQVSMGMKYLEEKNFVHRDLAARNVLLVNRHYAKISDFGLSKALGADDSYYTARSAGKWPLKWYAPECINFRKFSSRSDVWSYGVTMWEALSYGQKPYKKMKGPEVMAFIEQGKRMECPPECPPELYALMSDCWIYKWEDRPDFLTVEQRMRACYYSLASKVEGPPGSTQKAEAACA
Particulars: cited from earlier work.

The subject of another data set is iPSC-derived hepatocytes. Nature of the data set: Stage 3 maturation of thawed end of Stage 2 hepatocytes (morphology, AAT and albumin by flow cytometry). The format is cell-based, human. The method, then:
Thawing Cryopreserved hepatocytes at Stage 2 of differentiation and maturation to Stage 3 hepatocytes post thaw: Cryopreserved hepatocytes at the end of stage 2 were thawed in Stage 3 media. The cells were plated on Collagen I coated plates without spinning in the presence of a rock inhibitor. The media was gently changed at the end of 24 hours post plating. The maturation media contained SB/DAPT or Src kinase inhibitors and the cells were allowed to differentiate to additional 8-10 days with media exchanges every 48 hrs. The end stage cells were analyzed for hepatocyte morphology and the presence of AAT and albumin expression quantified by flow cytometry.
Generation of Liver organoids: Aggregates consisting of hepatocytes and other liver relevant cell types—specifically macrophages, MSC, and endothelial cells—designed to mimic liver organoid culture were established and maintained for 5-10 days. Aggregates were established in hepatocyte Stage 3 media (Table 2) supplemented with 1 μM of H1152, with the non-hepatocyte cells undergoing adaptation to Stage 3 media prior to initiation of co-cultures. For co-culture initiation, end of Stage 1 cells Hepatocytes were recovered from cryopreservation and aggregated at 500,000 cells/mL in Stage 2 media (Table 2) supplemented with 1 μM of rho kinase (rock) inhibitor H1152. […]

The target in the next data set is type I TGF-β receptors. Particulars: direct inhibition, unrelated to Src signaling; cited from earlier work.
Another data set deals with iPSCs. Nature of the data set: CHIR99021 preconditioning/supplementation during iPSC to hepatocyte differentiation. The format is cell-based, human. The following applies: supplementation midway through differentiation.

Experimental for iPSCs: iPS cells were maintained on […] ® in E8 Medium under hypoxic conditions (5% 02), using 0.5 mM EDTA for splitting approximately every 4-5 days. The iPSC cultures were acclimatized to hypoxia for around 10 passages before the onset of hepatocyte differentiation. Starting iPS cell cultures were seeded at 15-20 k/cm^2 on […] ®-coated 6-well plates or T150 flasks. Two days after seeding, media was changed to preconditioning medium (PCM) and fed daily for two-three days. Endoderm induction was performed by placing the cells in media containing activin (DE Day 0 Medium, also referred to as T0 medium). On days 1-2, media was changed to DE Day 1-2 Medium (also referred to as T1-T2 medium) containing activin, along with low concentrations of BMP4, VEGF and FGF2 for the next two days. From day 3-9, media was changed to DE Day 3-9 (also referred to as T3-T6 medium) with the base medium SFD, supplemented with Activin, BMP4 and VEGF. On day 10, a sampling of the culture was performed for staining the percentage of definitive endoderm cells. […] Surface staining was performed to quantify the levels of Tra181, CXCR4, CD117 by flow cytometry. […]
Alternately, the cell individualized cell suspension was placed in media for aggregate formation. […] Intracellular staining to quantify the levels of AAT, ASGPR, Albumin, and matched isotypes was performed via flow cytometry. […]

As for `Cc1ccc(-c2nn(C(C)(C)C)c3ncnc(N)c23)cc1` [PP1], the IC50 at ZAP-70 is no less than 600 nM; on type I TGF-β receptors it was 50 nM. The maturation of hepatocytes result in the data set on iPSC-derived hepatocytes (PP1 substituted for SB431542/DAPT in Stage 3 maturation media, post thaw, preliminary data) was “facilitated the maturation of hepatocytes”. Further, the “maturation of hepatocytes in co-culture” value in the data set on iPSC-derived hepatocytes (in the presence of MSCs, macrophages and endothelial cells) is “enhances the maturation of Hepatocytes”.
Turning to `Cc1c[nH]c(-c2cnc(NCCNc3ccc(C#N)cn3)nc2-c2ccc(Cl)cc2Cl)n1` [CHIR99021], in the data set on iPSCs, the “expansion of cells during hepatoblast to hepatocyte transition” value is listed as “effective in promoting the expansion of cells”.

One may read the IC50 as the concentration at which inhibition is half-maximal.
